Test results taken from patent publication US9464064B2, “HCV helicase inhibitors and methods of use thereof” (University of Kansas, priority 2011, dated 2016).

Experiments:
NS3h_1b(con1) = target: T1, NS3h_1b(con1) (Hepatitis C virus genotype 1b, UniProt Q9WMX2); assay: ATP hydrolysis assay (malachite green); type: biochemical
T1 construct: truncated C-terminally His-tagged NS3 proteins lacking the N-terminal protease, called NS3h; His-tag (C); made in house
Experimental: A modified “malachite green” assay (Lanzetta, et al. (1979) Anal. Biochem. 100:95-97) was used to measure ATP hydrolysis. Fifty μL reactions contained 25 mM MOPS pH 6.5, 5 mM MgCl2, 2 mM ATP, 5 μg/mL BSA, 0.01% (v/v) TWEEN 20, 0.05 mM DTT, and poly(U) RNA (Saint Louis, Mo.) as indicated. Reactions were initiated by adding NS3h_1b(con1). Reactions were incubated for 15 minutes at 37° C. then stopped by mixing 40 μL of the reaction into 200 μL of the malachite green reagent (3 volumes 0.045% (w/v) malachite green, 1 volume 4.2% ammonium molybdate in 4N HCl, 0.05 volume of 20% TWEEN 20). […] Absorbance at 630 nm was proportional to the concentration of phosphate produced; free phosphate produced was measured against a standard curve.

scNS4A-NS3 = scNS4A-NS3 (Hepatitis C virus genotype 1b, UniProt Q9WMX2); assay: NS3 protease assay (ENZOLYTE 520), full-length; type: biochemical, hepatitis C virus genotype 1b(con1); parameters: other: 100 μM, highest concentration tested; other: versus P4; There is also a His tag
Experimental: All oligonucleotides were purchased from Integrated DNA Technologies (IDT, Coralville, Iowa). Primuline derivatives were synthesized and purified as described herein. Three different NS3 proteins were used in this study. Two were truncated C-terminally His-tagged NS3 proteins lacking the N-terminal protease, called NS3h, the third was a full-length NS3 with the portion of NS4A needed for protease activation fused to its N-terminus, called scNS4A-NS3 (Howe, et al. (1999) Protein Sci. 8:1332-41), and the fourth was a 23 kDa scNS4A-NS3 protease fragment lacking the helicase domains, called scNS4A-NS3p (Protein One, Rockville, Md.). NS3h was expressed from two different HCV strains. NS3h_1b(con1) was from the con1 strain of genotype 1b (GENBANK accession AB114136), and NS3h_2a(JFH1) was from the JFH1 strain of HCV genotype 2a (GENBANK accession AJ238799). […] His-tagged recombinant NS3h_1b(con1), NS3h_2a(JFH1), and scNS4A-NS3 (also from genotype 1b(con1)) were expressed, and purified as previously described (Frick, et al. (2010) supra; Lam, et al. (2003) J. Virol. 77:3950-3961). […]
All NS3 protease assays were carried out using the 5-Carboxyfluorescein-labeled substrate from the AnaSpec. […] Assays were carried out in a total volume of 20 μl in black 384-well plates with fluorescence at 520 nm measured using a BMG FLUOstar Omega fluorescence spectrophotometer. […]

[1] = Chemical stability (hydrolytic); type: physicochemical; conditions: PBS with 50% acetonitrile, pH 7.4; % remaining after 48 hours at room temperature
Experimental: The stability of compounds in 1×PBS, pH 7.4, and at room temperature, was determined. Stability was also assessed in the presence of 50% ACN. Compounds were diluted and time 0 hour aliquots were collected and transferred to acetonitrile (spiked with an internal standard). The remainder of the volume was incubated for 48 hours, with additional aliquots collected at different time points (6 total). The amount of compound was determined by LC/MS/MS. The parent compound remaining was calculated by the following formula: % parent compound remaining=[(concentration at x hour/concentration at 0 hour)×100]. Results are the mean of each reaction triplicate, normalized to the internal standard, and expressed as a percent compound remaining after 48 hours.

in vitro = type: cell-based; conditions: human
Experimental: Immortalized human hepatocytes, Fa2N-4 cells (XenoTech) were seeded at ˜50,000 cells/well, and incubated with a range of concentrations (0.01-50 μM) of compound 17, in duplicate, for 24 hours at 37° C., 5% CO2. Cell viability was determined by cellular ATP levels using the Luminescence ATP Detection Assay System (ATPLITE 1 step, Perkin Elmer) and the Infinite M200 plate reader (Tecan). Camptothecin (highly toxic) and Terfenadine (highly non-toxic) were used as standards. Final DMSO concentration was 0.5%.

Plasma stability, human = type: in vitro ADME; conditions: percent remaining at 3 hours
Experimental: Stability of compounds in human plasma (BioChemed Services) and mouse plasma (BioChemed Services) were determined. All liquid was dispensed and transfer steps were performed with the FREEDOM EVO automated liquid handler (Tecan US). Plasma was allowed to thaw at room temperature prior to preparing the assay solution of plasma:1×PBS (1:1). The assay solution was warmed up at 37° C. prior of adding the compound. Immediately after compounds were added, time 0 minute aliquots were promptly collected and mixed with cold acetonitrile (spiked with an internal standard). The remainder of the reaction volume was incubated at 37° C. with shaking. Additional aliquots were collected 180 minutes after the start of the reaction and promptly quenched with cold acetonitrile (spiked with an internal standard). Samples were centrifuged at 3000 rpm for 10 minutes. The amount of compound in the supernatant was determined by LC/MS/MS (Applied Biosystems, Sciex API4000 Q-TRAP) and the percent of parent compound remaining after 180 minutes was calculated by the following formula: % parent compound remaining=[(concentration at 180 minutes/concentration at 0 minutes)×100]. Results reported are the mean of each reaction duplicate, normalized to the internal standard, and expressed as a percent of compound remaining after the incubation time. […]

T1 sequence (Q9WMX2 1192-1657): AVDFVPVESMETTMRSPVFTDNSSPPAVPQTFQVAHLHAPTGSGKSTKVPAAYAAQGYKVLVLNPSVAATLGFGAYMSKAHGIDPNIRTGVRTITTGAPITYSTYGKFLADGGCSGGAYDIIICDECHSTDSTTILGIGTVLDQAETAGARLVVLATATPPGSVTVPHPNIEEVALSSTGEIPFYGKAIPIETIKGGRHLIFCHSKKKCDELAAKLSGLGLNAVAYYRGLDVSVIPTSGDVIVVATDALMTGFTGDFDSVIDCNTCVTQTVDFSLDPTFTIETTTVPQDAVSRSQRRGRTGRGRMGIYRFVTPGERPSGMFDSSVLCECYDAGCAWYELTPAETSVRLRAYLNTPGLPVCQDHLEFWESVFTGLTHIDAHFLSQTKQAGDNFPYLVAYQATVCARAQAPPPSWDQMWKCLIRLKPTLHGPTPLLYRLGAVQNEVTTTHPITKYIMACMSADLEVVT
Chain of scNS4A-NS3 (Q9WMX2 1027-1657): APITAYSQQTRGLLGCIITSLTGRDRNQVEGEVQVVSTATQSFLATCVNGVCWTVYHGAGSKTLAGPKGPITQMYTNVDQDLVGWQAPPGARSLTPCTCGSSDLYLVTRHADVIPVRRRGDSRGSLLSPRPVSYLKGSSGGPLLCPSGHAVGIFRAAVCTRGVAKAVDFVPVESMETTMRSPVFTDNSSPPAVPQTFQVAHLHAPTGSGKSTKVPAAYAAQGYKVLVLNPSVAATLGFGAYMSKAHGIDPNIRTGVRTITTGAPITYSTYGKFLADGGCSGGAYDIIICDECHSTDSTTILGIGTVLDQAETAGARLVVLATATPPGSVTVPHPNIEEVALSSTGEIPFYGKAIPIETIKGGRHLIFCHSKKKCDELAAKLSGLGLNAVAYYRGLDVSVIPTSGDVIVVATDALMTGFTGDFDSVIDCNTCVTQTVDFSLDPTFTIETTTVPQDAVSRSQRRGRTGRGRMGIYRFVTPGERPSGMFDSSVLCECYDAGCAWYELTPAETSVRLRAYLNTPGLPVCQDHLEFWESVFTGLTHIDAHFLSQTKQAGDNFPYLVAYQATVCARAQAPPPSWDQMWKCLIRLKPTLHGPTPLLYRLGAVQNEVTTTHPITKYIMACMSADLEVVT

With Cc1ccc2nc(-c3ccc4nc(-c5ccc6nc(-c7ccc(N)cc7)sc6c5)sc4c3)sc2c1S(=O)(=O)O [Compound P3, 2″-(4-aminophenyl)-6-methyl-[2,6′:2′,6″-terbenzo[d]thiazole]-7-sulfonic acid] the IC50 (NS3h_1b(con1)) was 15 ± 4 µM.

In the case of Cc1ccc2nc(-c3ccc4nc(-c5ccc(N)cc5)sc4c3)sc2c1S(=O)(=O)O [Compound P2a, 2′-(4-aminophenyl)-6-methyl-[2,6′-bibenzo[d]thiazole]-7-sulfonic acid], the inhibition at 100 µM (scNS4A-NS3; read-out: inhibition of protease) is reported as no more than 50%.

For Cc1ccc2nc(-c3ccc4nc(-c5ccc6nc(-c7ccc8nc(-c9ccc(N)cc9)sc8c7)sc6c5)sc4c3)sc2c1S(=O)(=O)O [Compound P4, 2′″-(4-aminophenyl)-6-methyl-[2,6′:2″,6′″-quaterbenzo[d]thiazole]-7-sulfonic acid], the IC50 (NS3h_1b(con1)) was 5 ± 3 µM and the “effect on NS3 ATP hydrolysis” value (NS3h_1b(con1); presence and absence of RNA) was “inhibited ATP hydrolysis both in the presence and absence of RNA”.

With Cc1ccc2nc(-c3ccc4nc(-c5ccc(NC(=O)c6cccc(Cl)c6)cc5)sc4c3)sc2c1S(=O)(=O)O [Compound 17, 2′-(4-(3-chlorobenzamido)phenyl)-6-methyl-[2,6′-bibenzo[d]thiazole]-7-sulfonic acid] the “Aqueous Stability” value [1] was 100%, the CC50 at 24 h (in vitro) was greater than 50 µM and the “Plasma Stability Human” value (Plasma stability, human) was 96.6%. The “times less potent protease inhibitor than compound P4” value (scNS4A-NS3; versus P4) was 50 times.
